# Values joined by “and” are separate entries in the source; they are usually repeats but may differ in a detail not shown here. Equal values may be shown once. Read-outs that look alike come from different tables or passages of the source.
# Legend:
# Plasmodia = conditions: cited from earlier work
# rhodesain [1] = target: T1, rhodesain (Trypanosoma brucei rhodesiense, UniProt Q95PM0); test: rhodesain dilution assay (reversibility); assay type: biochemical; conditions: preincubated 1 h with 10 fold IC50, then diluted 100 fold
# Description: In order to study the inhibition mechanism of plakortide E, enzyme assays with various inhibitor and substrate concentrations were performed with cathepsin B to determine whether the inhibition is competitive with respect to the substrate. The IC50 values for cathepsin B were determined at three different substrate concentrations (50, 100, 200 μM). […] Therefore, we determined the time-dependency of inhibition by measuring IC50 values in correlation to incubation time of enzyme with the inhibitor added, prior to substrate addition. […] To address whether the inhibition is reversible or irreversible, further kinetic studies were performed as described by Copeland [19]. Dilution assays were performed and compared with K11777 [20], an irreversible vinylsulfone-based inhibitor of rhodesain. The enzyme rhodesain (100 fold concentration as used in the normal enzyme assays) was preincubated with the 10 fold IC50 concentration of the compound for one hour, which allows the formation of enzyme-inhibitor complexes and leads to total block of enzyme activity. […] In case of irreversible inhibition, dissociation of the complex cannot occur and no enzyme activity will be detected. […] This indicates a reversible inhibition by plakortide E. In summary, plakortide E was determined to be a non-competitive, reversible, inhibitor of cysteine proteases, in case of rhodesain slow-binding was observed.
# SARS PLpro = assay type: biochemical, SARS coronavirus; conditions: at 100 μg/mL (285.71 μM)
# [2] = test system: sarcoplasmic reticulum (SR) Ca2+ ATPase; design: method as in doi:10.1016/0040-4020(95)00856-X; conditions: cited from earlier work
# Candida albicans = test: assay on C. albicans; assay type: cell-based
# J774.1 macrophages = conditions: at 100 μM
# cathepsin L = cathepsin L (Homo sapiens, UniProt P07711); test: cathepsin L enzyme assay; assay type: biochemical
# [3] = test system: Leishmania major promastigotes; test: assay on L. major promastigotes; assay type: cell-based
# [4] = test system: trypomastigote forms of Trypanosoma brucei; test: parasite growth assay against T. brucei; assay type: cell-based; conditions: read-out: trypanocidal activity IC50
# rhodesain [5] = target: T1, rhodesain; test: rhodesain enzyme assay; assay type: biochemical
# cathepsin B = cathepsin B (Homo sapiens, UniProt P07858); test: cathepsin B enzyme assay; assay type: biochemical
# Sequence of cathepsin L (P07711 114-333): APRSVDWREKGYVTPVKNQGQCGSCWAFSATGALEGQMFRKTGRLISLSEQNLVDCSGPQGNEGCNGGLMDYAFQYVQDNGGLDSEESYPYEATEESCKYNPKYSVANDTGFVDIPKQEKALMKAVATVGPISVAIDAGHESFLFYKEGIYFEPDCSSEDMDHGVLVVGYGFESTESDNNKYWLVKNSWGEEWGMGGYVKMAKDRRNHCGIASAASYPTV
# T1 sequence (Q95PM0 entry or part of it): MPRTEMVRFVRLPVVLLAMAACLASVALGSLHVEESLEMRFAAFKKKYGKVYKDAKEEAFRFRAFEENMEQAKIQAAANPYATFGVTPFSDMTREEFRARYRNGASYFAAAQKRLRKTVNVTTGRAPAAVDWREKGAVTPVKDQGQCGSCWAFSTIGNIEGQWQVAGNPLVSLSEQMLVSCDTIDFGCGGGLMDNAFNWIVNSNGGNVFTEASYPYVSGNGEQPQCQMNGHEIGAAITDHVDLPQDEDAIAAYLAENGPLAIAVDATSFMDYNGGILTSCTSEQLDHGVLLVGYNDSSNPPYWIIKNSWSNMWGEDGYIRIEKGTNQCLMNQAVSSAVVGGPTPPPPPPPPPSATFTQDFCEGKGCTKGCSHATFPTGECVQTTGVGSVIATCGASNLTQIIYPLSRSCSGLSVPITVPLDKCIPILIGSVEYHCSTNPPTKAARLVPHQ
compound,measurement,setting,value
CC/C=C/C(CC)C[C@@]1(C)C[C@@H](CC)[C@H](CC(=O)OC)OO1 (stereo partly shown) [3-epiplakortin],activity against Plasmodia,Plasmodia,active
"CN1CCN(C(=O)N[C@@H](Cc2ccccc2)C(=O)N[C@H](/C=C/S(=O)(=O)c2ccccc2)CCc2ccccc2)CC1 [K11777, reference compound]",reactivation of the enzyme (enzyme activity after dilution),rhodesain [1],no enzyme activity was detected
CC/C=C/[C@H](CC)C/C(C)=C/[C@@]1(CC)C[C@](/C=C/C(=O)O)(CC)OO1 [plakortide E],inhibition of SARS PLpro,SARS PLpro,Inhibition
same,SR Ca2+ ATPase activity,[2],stimulate
same,activity against Candida,Candida albicans,No activity
same,activity against Plasmodia,Plasmodia,inactive
same,cytotoxic effects against macrophages,J774.1 macrophages,no cytotoxic effects
same,IC50,cathepsin L; [S] = 6.25 μM,106 µM and 105 µM
same,inhibition of cathepsin L,cathepsin L; at 100 μg/mL (285.71 μM),Inhibition
same,activity against Leishmania,[3],did not show activity
same,IC50,[4]; after 48 h,5 µM
same,IC50,[4]; after 72 h,5 µM
same,IC50,"rhodesain [5]; 5 min incubation of enzyme with inhibitor prior to substrate addition, read-out: IC50 rhodesain, time-dependency (converted)",257 µM
same,IC50,"rhodesain [5]; 30 min incubation of enzyme with inhibitor prior to substrate addition, read-out: IC50 rhodesain, time-dependency (converted)",205 µM
same,IC50,"rhodesain [5]; 60 min incubation of enzyme with inhibitor prior to substrate addition, read-out: IC50 rhodesain, time-dependency (converted)",77 µM
same,IC50,"rhodesain [5]; [S] = 30.0 μM, read-out: IC50 rhodesain (converted)",124 µM and 126 µM
same,inhibition of rhodesain,rhodesain [5]; at 100 μg/mL (285.71 μM),Inhibition
same,"inhibition mechanism, rhodesain",rhodesain [5]; enzyme kinetic studies,"non-competitive, slowly-binding, reversible inhibitor"
same,"inhibition mechanism, cathepsin B",cathepsin B; IC50 at three substrate concentrations,non-competitive inhibition
same,inhibition of cathepsin B,cathepsin B; at 100 μg/mL (285.71 μM),Inhibition
same,IC50,cathepsin B; substrate concentration 50 μM,82.7 µM and 82 µM
same,IC50,cathepsin B; substrate concentration 100 μM,74.2 µM and 73 µM
same,IC50,cathepsin B; substrate concentration 200 μM,103 µM
same,reactivation of the enzyme (enzyme activity after dilution),rhodesain [1],about 50%
CC/C=C/[C@H](CC)C/C=C/[C@@]1(CC)C[C@H](CC)[C@H](CC(=O)O)OO1 [plakortide M],activity against Plasmodia,Plasmodia,active
CC/C=C/[C@H](CC)C[C@@]1(C)C[C@@H](CC)[C@@H](CC(=O)OC)OO1 [plakortin],activity against Plasmodia,Plasmodia,active
dihydroplakortin,activity against Plasmodia,Plasmodia,active
plakortide Q,activity against Plasmodia,Plasmodia,active

# Reference: article PMC4052307, “Identification of Plakortide E from the Caribbean Sponge Plakortis halichondroides as a Trypanocidal Protease Inhibitor using Bioactivity-Guided Fractionation” (Marine Drugs, 2014)
